Measurements from patent publication US20240199562A1, “UREA DERIVATIVES FOR TREATING UVEAL MELANOMA” (CENTRE NATIONAL DE LA RECHERCHE SCIENTIFIQUE, priority 2021, published 2024).
Read-outs that look alike come from different tables or passages of the source.

Columns and labels:
MM66 cells [1] = assay: Cell viability (XTT) on uveal melanoma cells MM66; assay type: cell-based; details: for metabolism of UM cells (XTT): MM66 cells, increasing doses, FIG. 2A; for viability of cells: MM66 cells from liver metastases, in words
Experimental: (§1) FIG. 1: In vitro efficacy of MCK140 and MCK151 on uveal melanoma cells. Cells were treated for 48 hours with increasing doses of MCK140 or MCK151 and the cell viability was then evaluated by XTT.
(§2) FIG. 2A: In vitro efficacy of MCK151, Ladarixin, and AZD-5069 in uveal melanoma cells. MP41 and MM66 cells were treated for 48 hours with increasing doses of MCK151 or Ladarixin or AZD-5069 and the cell metabolism was then evaluated by XTT.
(§3) Cell culture: Uveal melanoma cells were derived from the primary tumor (eye tumor, MP38 and MP46) and one is from liver metastasis (MM66) were a kind gift from Dr. Roman Roman (Curie Institute). UM cells were cultured in RPMI medium supplemented with 20% FBS.
(§4) Cell viability (XTT): Cells (5×10^3 cells/100 μl) were incubated in a 96-well plate with different effectors for the times indicated in the figure legends. 50 μl of sodium 3′-[1-phenylaminocarbonyl)-3,4-tetrazolium]-bis(4-methoxy-6-nitro) benzene sulfonic acid hydrate (XTT) reagent was added to each well. The assay is based on the cleavage of the yellow tetrazolium salt XTT to form an orange formazan dye by metabolically active cells. Absorbance of the formazan product, reflecting cell viability, was measured at 490 nm. Each assay was performed in quadruplicate.

MP41 cells [2] = assay: Cell viability (XTT) on uveal melanoma cells MP41; assay type: cell-based; details: for metabolism of UM cells (XTT): MP41 cells, increasing doses, FIG. 2A; for IC50: MP41 cells (primary tumor); for viability of cells: MP41 cells from the primary tumor, in words
Experimental: as §1, §2, §3, §4

MP41 cells [3] = assay: ROS assay (CellROX Deep Red, cytometry); assay type: cell-based; details: MCK151 1, 2.5, 5 μM, Ladarixin 10 μM, FIG. 2B
Experimental: FIG. 2B: Inhibition of ROS production by MCK151 and Ladarixin in uveal melanoma cells. MP41 cells were treated for 48 hours with increasing doses of MCK151 (1 μM, 2.5 μM, and 5 μM) or Ladarixin (10 μM) and ROS quantity was evaluated by cytometry.
ROS assay: Deep Red Reagent was used to assess the level of intracellular ROS. The CellROX/Deep Red reagent (which is initially non-fluorescent) freely enters the cells, where it is cleaved by endogenous esterases. After oxidization by ROS, the reagent becomes highly fluorescent with an absorption/emission maximal of 644/665 nm. Cells were treated 24h and incubated at 37° C. with CellROX Deep Red reagent (0.01 umol/L) for 2 h. The cells were then washed with PBS and analyzed by cytometry.

MP38 cells = assay: Cell viability (XTT) on uveal melanoma cells MP38; assay type: cell-based; details: for IC50: MP38 cells (primary tumor), 48 hours, XTT; for viability of cells: MP38 cells from the primary tumor, in words
Experimental: as §1, §3, §4

MP41 cells [4] = assay: Tumor xenograft, gavage; assay type: in vivo, mice; details: orally
Experimental: FIG. 5: In vivo efficacy of MCK151 on mice treated by gavage. Five million MP41 cells were injected subcutaneously into the flank of 5-week-old NOD-SCID female mice. When the tumor reached 100 mm^3, mice were treated every day for 27 days, by gavage with placebo (10% ethanol vehicle) or MCK151 (33 or 100 mg/kg in 10% ethanol vehicle). • A: The tumor volume was evaluated using a calliper. The results are presented as the means±sd. ** p<0.01, *** p<0.001 • B: Tumor weight at the end of the experiment. ** p<0.01, *** p<0.001 ns: non significant • C: Animal weight at the end of the experiment. ns: non significant
(§5) Tumor xenograft experiments: These studies were carried out in strict accordance with the recommendations in the Guide for the Care and Use of Laboratory Animals. Our experiments were approved by the “Comité National Institutionnel d'Ethique pour l'Animal de Laboratoire”. Five million MP41 cells were injected subcutaneously into the flank of 5-week-old Nod-SDIC female mice (Janvier). When the tumor reached 100 mm3, mice were treated. The tumor volume was determined with a caliper (v=L*l2*0.5).
An oral formulation (10% ethanol in ultrapure water) was developed and tested in the same in vivo model (FIG. 5). […] However, a 100 mg/kg dose reduced tumor growth (50% reduction, FIG. 5A).

SLUG = SLUG protein amount by immunoblotting; assay type: cell-based; details: MP41 and MM66 cells, 2.5 μM, 0-24 h, FIG. 3C
Experimental: FIG. 3C: Slug proteins amount in uveal melanoma cells treated by MCK151. MP41 and MM66 cells were treated with MCK151 (2.5 μM) for different time (0, 2, 4, 6, 8, and 24 h). SLUG protein amounts were evaluated by immunoblotting. HSP90 is used as a loading control.
Immunoblotting: Cells were lysed in SDS 7.5%; glycerol 30%; Tris 0.3 M pH 6.8 lysis buffer. 30 μg of proteins were separated on 10% SDS—polyacrylamide gels and transferred on PVDF membranes. The following primary antibodies were used: SLUG (Cell signaling, ref:9585) and HSP90 (Cell signaling, ref:4877).

MM66 cells [5] = assay: Migration assay (Boyden chamber); assay type: cell-based
Experimental: FIG. 3A: Evaluation of the migration ability of uveal cells treated with MCK151. MP41 and MM66 cells migration was analysed using Boyden chamber assays in the presence/absence of MCK151 (0.1 to 2.5 μM). Representative images were shown. ** p<0.01, *** p<0.001
Migration assays: 50 000 cells were cultured in RPMI 0% FCS and seeded in Boyden chambers. After 24 h, Boyden chambers were washed with PBS. Migrative cells were fixed with paraformaldehyde 3% and colored with crystal violet.

MP41 cells [6] = assay: Tumor xenograft, intraperitoneal injection; assay type: in vivo, mice
Experimental: FIG. 4: In vivo efficacy of MCK151 on mice treated by intraperitoneal injection. Five million MP41 cells were injected subcutaneously into the flank of 5-week-old NOD-SCID female mice. When the tumor reached 100 mm^3, mice were treated every day for 20 days, by intraperitoneal injection with placebo (dextrose water vehicle) or MCK151 (200 or 400 μg in dextrose water vehicle) • A: The tumor volume was evaluated using a calliper. The results are presented as the means±sd. ** p<0.01 • B: Tumor weight at the end of the experiment. ** p<0.01, *** p<0.001 • C: Animal weight at the end of the experiment. ns: non significant
as §5

MMP9 mRNA = MMP9 mRNA levels by RT-qPCR; assay type: cell-based; details: MP41 and MM66 cells, 24 hours, 2.5 μM, FIG. 3B
Experimental: FIG. 3B: MMP9 mRNA levels (AU) in uveal melanoma cells. MP41 and MM66 cells were treated for 24 hours with MCK151 (2.5 μM) and MMP9 mRNA levels were evaluated by qPCR. *** p<0.001.
Analyses by RT-qPCR: RNA from cells were purified with the RNeasy Mini Kit (Quiagen). The “QuantiTect Reverse Transcription Kit” (Qiagen) was used for cDNA obtention. The PCR program was executed on “Professional Basic Thermocycler” (Biometra). SYBR master mix plus (Eurogentec) was used for qPCR. The mRNA levels were normalized to 36B4 mRNA.

[7] = MM66 cells (liver metastases), 48 h, Table 3, read-out: IC50 (μM) at 48 h MM66
[8] = 48 h, Table 3, read-out: IC50 (μM) at 48 h MP41
[9] = MM66 cells (liver metastasis), 48 hours, XTT, Table 2, read-out: IC50 (μM) UM MM66
[10] = 48 hours, XTT, Table 2, read-out: IC50 (μM) UM MP41

## C[C@@H](Oc1cc(NS(=O)(=O)N2CCC2)nc(SCc2cccc(F)c2F)n1)[C@@H](O)CO [AZD-5069, reference compound]
MM66 cells [1]; 48 hours
  metabolism of UM cells (XTT): no effect
MP41 cells [2]; 48 hours
  metabolism of UM cells (XTT): no effect

## C[C@@H](C(=O)NS(C)(=O)=O)c1ccc(OS(=O)(=O)C(F)(F)F)cc1 [Ladarixin, reference compound]
MP41 cells [3]
  ROS production by UM cells: no effect
MM66 cells [1]; 48 hours
  metabolism of UM cells (XTT): no effect
MP41 cells [2]; 48 hours
  metabolism of UM cells (XTT): no effect

## O=C(Nc1ccccc1)Nc1nc2ccccc2[nH]1 [MCK113, 1-(1H-benzo[d]imidazol-2-yl)-3-phenylurea]
MM66 cells [1]; [7]
  IC50: 40 µM
MP41 cells [2]; [8]
  IC50: 32 µM

## CCOc1ccc2nc(NC(=O)Nc3ccccc3C)sc2c1 [MCK133, 1-(6-ethoxybenzo[d]thiazol-2-yl)-3-(o-tolyl)urea]
MM66 cells [1]; [7]
  IC50: 20 µM
MP41 cells [2]; [8]
  IC50: 15 µM

## CCOc1ccc2nc(NC(=O)Nc3ccc(OC)cc3)sc2c1 [MCK135, 1-(6-ethoxybenzo[d]thiazol-2-yl)-3-(4-methoxyphenyl)urea]
MM66 cells [1]; [7]
  IC50: 50 µM
MP41 cells [2]; [8]
  IC50: 50 µM

## O=C(Nc1nc2ccc([N+](=O)[O-])cc2s1)Nc1ccccc1Cl [MCK139, 1-(2-chlorophenyl)-3-(6-nitrobenzo[d]thiazol-2-yl)urea]
MM66 cells [1]; [7]
  IC50: 15 µM
MP41 cells [2]; [8]
  IC50: 20 µM

## O=C(Nc1cccc(Cl)c1)Nc1nc2ccc([N+](=O)[O-])cc2s1 [MCK140, 1-(3-chlorophenyl)-3-(6-nitrobenzo[d]thiazol-2-yl)urea]
MM66 cells [1]; [7]
  IC50: 1.25 µM
MM66 cells [1]; [9]
  IC50: 1.25 µM
MM66 cells [1]
  viability of cells: decreased the viability
MP41 cells [2]; [8]
  IC50: 1 µM
MP41 cells [2]; [10]
  IC50: 1 µM
MP41 cells [2]
  viability of cells: decreased the viability
MP38 cells
  IC50: 1 µM
  viability of cells: decreased the viability

## Nc1ccc2nc(NC(=O)Nc3cccc(Cl)c3)sc2c1 [MCK148, 1-(6-aminobenzo[d]thiazol-2-yl)-3-(3-chlorophenyl)urea]
MM66 cells [1]; [7]
  IC50: 50 µM
MP41 cells [2]; [8]
  IC50: 50 µM

## CC(=O)Nc1ccc2nc(NC(=O)Nc3cccc(Cl)c3)sc2c1 [MCK149, N-(2-(3-(3-chlorophenyl)ureido)benzo[d]thiazol-6-yl)acetamide]
MM66 cells [1]; [7]
  IC50: 25 µM
MP41 cells [2]; [8]
  IC50: 40 µM

## O=C(Nc1cc(Cl)cc(Cl)c1)Nc1nc2ccc([N+](=O)[O-])cc2s1 [MCK151, 1-(3,5-dichlorophenyl)-3-(6-nitrobenzo[d]thiazol-2-yl)urea]
MP41 cells [3]
  ROS production by UM cells: inhibits ROS production
MP41 cells [4]; 33 mg/kg per day, FIG. 5
  tumor growth: had a trend to decrease tumor growth
MP41 cells [4]; 100 mg/kg dose, FIG. 5A
  reduction of tumor growth: 50%
MP41 cells [4]; 100 mg/kg dose, FIG. 5B
  reduction of tumor weight: 50%
MP41 cells [4]; 33 and 100 mg/kg/day, FIG. 5C
  mice weight: did not modify mice weight
SLUG
  expression of SLUG: decreases
MM66 cells [1]; [7]
  IC50: 1.5 µM
MM66 cells [1]; [9]
  IC50: 1.5 µM
MM66 cells [1]
  viability of cells: decreased the viability
MM66 cells [1]; 48 hours
  metabolism of UM cells (XTT): strongly inhibits the metabolism of UM cells
MM66 cells [5]; Boyden chamber
  concentration of optimal effect on migration: 0.5 µM
MM66 cells [5]; MCK151 0.1 to 2.5 μM, FIG. 3A
  migration ability: inhibits this migration ability
MP41 cells [6]; NOD-SCID mice, 400 μg dose, FIG. 4A
  inhibition of tumor growth: 73%
MP41 cells [6]; NOD-SCID mice, 200 or 400 μg every day for 20 days, FIG. 4A
  growth of experimental tumors: inhibited
MP41 cells [6]; NOD-SCID mice, FIG. 4B (tumor weight)
  tumors at the end of the experiment: smaller
MP41 cells [6]; whatever the concentration, FIG. 4C
  weight of mice: did not modify the weight of mice
MMP9 mRNA
  MMP9 mRNA levels: decreases MMP9 mRNA levels
MP41 cells [2]; [8]
  IC50: 1.25 µM
MP41 cells [2]; [10]
  IC50: 1.25 µM
MP41 cells [2]
  viability of cells: decreased the viability
MP41 cells [2]; 48 hours
  metabolism of UM cells (XTT): strongly inhibits the metabolism of UM cells
MP38 cells
  IC50: 1 µM
  viability of cells: decreased the viability

## Cc1cccc(NC(=O)Nc2nc3ccc([N+](=O)[O-])cc3o2)c1 [MCK153, 1-(6-nitrobenzo[d]oxazol-2-yl)-3-(m-tolyl)urea]
MM66 cells [1]; [7]
  IC50: 12 µM
MP41 cells [2]; [8]
  IC50: 30 µM

## O=C(Nc1ccccc1)Nc1nc2ccc([N+](=O)[O-])cc2[nH]1 [MCK157, 1-(6-nitro-1H-benzo[d]imidazol-2-yl)-3-phenylurea]
MM66 cells [1]; [7]
  IC50: 10 µM
MP41 cells [2]; [8]
  IC50: 8 µM

## O=C(Nc1cccc(Cl)c1)Nc1nc2ccc(Br)cc2s1 [MCK159, 1-(6-bromobenzo[d]thiazol-2-yl)-3-(3-chlorophenyl)urea]
MM66 cells [1]; [7]
  IC50: 10 µM
MP41 cells [2]; [8]
  IC50: 20 µM

## O=C(Nc1cccc(Cl)c1)Nc1nc2ccc(-c3cccc4ccccc34)cc2s1 [MCK164, 1-(3-chlorophenyl)-3-(6-(naphthalen-1-yl)benzo[d]thiazol-2-yl)urea]
MM66 cells [1]; [7]
  IC50: 5 µM
MP41 cells [2]; [8]
  IC50: 10 µM

## O=C(Nc1cccc(Cl)c1)Nc1nc2ccc(-c3ccccn3)cc2s1 [MCK172, 1-(3-chlorophenyl)-3-(6-(pyridin-2-yl)benzo[d]thiazol-2-yl)urea]
MM66 cells [1]; [7]
  IC50: 25 µM
MP41 cells [2]; [8]
  IC50: 30 µM
